# Data published in patent US20260224590A1 (priority 2023, published 2026).
# Where two headings read alike, the source gives them in different places.
# How the values were obtained:
# [1] = target: T1, 5-HT2A receptor (Homo sapiens, UniProt P28223); assay: 5-HT2A receptor downstream β-arrestin2 recruitment in HEK-293T cells; assay type: cell-based; parameters: expressed in transfected cells; host or cells: HEK-293T (ATCC, CRL-11268); conditions: for β-arrestin2 signaling agonistic activity (% in parentheses): HEK-293T, percentage printed in parentheses beside the nM value, not defined; for signaling pathway selectivity at the 5-HT2A receptor (β-arrestin2 versus G protein): statement on Table 2
# T1 sequence (P28223 whole entry): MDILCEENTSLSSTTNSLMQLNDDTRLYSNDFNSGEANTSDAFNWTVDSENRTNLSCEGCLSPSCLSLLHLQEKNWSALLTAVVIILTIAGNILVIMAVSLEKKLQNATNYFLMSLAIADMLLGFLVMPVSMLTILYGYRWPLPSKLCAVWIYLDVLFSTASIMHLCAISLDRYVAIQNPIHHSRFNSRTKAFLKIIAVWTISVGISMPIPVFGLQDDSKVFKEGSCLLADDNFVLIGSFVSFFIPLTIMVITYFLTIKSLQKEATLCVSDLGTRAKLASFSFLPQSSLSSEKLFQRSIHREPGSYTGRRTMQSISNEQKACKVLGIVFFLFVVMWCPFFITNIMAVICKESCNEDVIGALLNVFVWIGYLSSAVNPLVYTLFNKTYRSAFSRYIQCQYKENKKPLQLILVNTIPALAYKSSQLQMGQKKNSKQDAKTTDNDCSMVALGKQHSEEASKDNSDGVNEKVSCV
# Experimental: (§1) On the second day, the confluent cells from a 6 cm culture dish were digested and reseeded into a 96-well plate at a volume of 100 μL of culture medium per well. On the third day, the drugs were added for testing. The 96-well plate was taken out from the cell incubator to decant the culture medium. 40 μL of the substrate coelenterazine 400a (final concentration 5 μM) was added to each well, and then 20 μL of different drugs were added sequentially from left to right, ensuring that the final concentration of the drug decreased gradually from bottom to top, with two replicates per treatment. Finally, the prepared samples were loaded on a plate reader for signal quantification. The readout values reflected the recruitment of β-arrestin2 to the membrane or the dissociation of G protein trimer. The former indicated the degree of activation of the downstream β-arrestin2 signaling pathway mediated by the 5-HT2A receptor, and the latter indicated the degree of activation of the downstream G protein signaling pathway mediated by the 5-HT2A receptor.
# [2] = target: T1, 5-HT2A receptor; assay: radioligand competitive binding assay, affinity for the 5-HT2A receptor; conditions: [3H]-LSD competition, 293T membranes transiently expressing 5-HT2A receptor
# [3] = in vivo; conditions: male, C57, mouse, plasma, ip, 5 mg/kg
# Experimental: (§3) The concentration of the compound in mouse plasma was determined using LC-MS/MS, and the relevant pharmacokinetic parameters were calculated to investigate the pharmacokinetic characteristics of the compound in mice.
# (§4) Experimental design: 60 male C57 mice (purchased from Suzhou JOINN Laboratory Animal Co., Ltd.) were randomly divided into groups based on weight, with 3 mice per group. The mice were fasted with water ad libitum for 12 to 14 hours one day before test-article administration and fed 4 hours after the administration. The route of administration was intraperitoneal (IP), with a dosing concentration of 1 mg/mL, and a solvent formulation of 10% DMSO+90% saline.
# (§5) Sample collection: 0.1 mL of blood was collected from the orbit under isoflurane anesthesia before and after test-article administration, transferred to EDTA K2 tubes, and placed on an ice bath. The samples were centrifuged at 5000 rpm for 10 minutes at 4° C., and the plasma was collected. […] Prior to analysis, all plasma samples were stored at −80° C.
# (§6) Data processing: Drug concentrations in plasma and brain tissues were measured using LC-MS (API4000QTRAP triple quadrupole tandem mass spectrometer, equipped with an electrospray ionization source (ESI)). The data collection and control system software utilized was Analyst 1.5.1 (Applied Biosystems). The sample peak integration in the spectrum was conducted automatically; the ratio of the sample peak area to the internal standard peak area was used as an indicator to perform regression with the concentration of the sample. Regression method: Linear regression with a weighting factor of 1/X^2. Pharmacokinetic parameters were analyzed using a non-compartmental model in WinNonlin Professional v6.3 (Pharsight, USA). Cmax is the measured maximum plasma concentration, the area under the plasma concentration-time curve (AUC(0→t)) was calculated by the trapezoidal method, and Tmax is the time to reach peak plasma concentration after administration. Experimental data are presented as “Mean±Standard Deviation” (Mean±SD, n≥3) or “Mean” (n=2).
# [4] = system: C57BL/6J mice; assay: head-twitch response in mice (hallucinogenic effects); assay type: in vivo; conditions: intraperitoneal injection, first 30 minutes, all doses tested
# Description: Method: The head-twitch response in mice was detected via oscillatory signals to characterize hallucinogenic effects. Mice (strain C57BL/6J, purchased from Shanghai Lingchang Biotech Co., Ltd.) were anesthetized with 2% isoflurane. A small portion of the scalp was removed from the center of the dorsal cranium. A custom-made small neodymium magnet (4 mm×4 mm×2 mm) was attached to the center of the dorsal cranium using dental resin. The magnet N-S poles were kept parallel to the dorsoventral aspect of the implant. The mice were allowed to recover for 1 week before testing. To record precise head movements, the mice were placed in a glass beaker with a diameter of 12 cm, surrounded by 150 turns of #30 enameled copper wire. The output signal from the coil was recorded using a PowerLab/4SP instrument installed with LabChart V8.1.16 software. Coil voltage was amplified, low-pass filtered at 10 kHz to remove radio frequency interference, and sampled at 40 kHz. For the detection of head-twitch response in mice, LabChart data were processed with a digital band-pass filter at 40 to 200 Hz. The head-twitch response in mice was identified by searching for sinusoidal wavelets that met the following criteria: 1) containing more than two bipolar peaks; 2) amplitude exceeding background noise level; 3) duration less than 120 milliseconds. 1 hour prior to the test, the mice were transferred to the test room for acclimatization. Subsequently, the mice were placed in the beaker for 30 minutes, and baseline head-twitch response values were recorded. Immediately after baseline recording, the mice were injected intraperitoneally with the test compound, and head-twitch response values were recorded for 1 to 2 hours post-dose, depending on the compound used. Statistical values were taken from the first 30 minutes.
# [5] = system: C57BL/6 mice, corticosterone in drinking water; assay: tail suspension test after 21 days of corticosterone exposure; assay type: in vivo; conditions: corticosterone model
# Experimental: Antidepressant efficacy test method: Male C57BL/6 mice (8 weeks old, purchased from Shanghai Lingchang Biotech Co., Ltd.) were administered a solution of corticosterone in their drinking water at a concentration of 25 μg/mL using drinking water bottles for 21 days. Mice were maintained on a 12-hour light cycle. Corticosterone-containing drinking water was refreshed every other day for the first two weeks, and gradually replaced with corticosterone-free drinking water every two days for the last week. […] TST procedure: mice in the control group and the administration group were suspended by their tails with tape for 6 minutes, and their behavior was recorded by a video camera. The immobility time during the last 4 minutes was manually timed and assessed by an observer who was unaware of the treatment conditions.
# [6] = target: T1, 5-HT2A receptor; assay: 5-HT2A receptor downstream G protein (Gq) signaling, G protein trimer dissociation in HEK-293T cells; assay type: cell-based; parameters: expressed in transfected cells; host or cells: HEK-293T (ATCC, CRL-11268); conditions: percentage printed in parentheses beside the nM value, not defined
# Experimental: as §1
# [7] = system: C57BL/6J wild-type mice, acute restraint stress; assay: forced swim test (FST) after acute restraint stress; assay type: in vivo; conditions: 5 h acute restraint stress, intraperitoneal injection, test after 30 minutes
# Experimental: (§2) Method: Acute restraint stress (ARS) is frequently used to induce a depressive state in mice. The forced swim test (FST) and tail suspension test (TST) are currently the most commonly used models for inferring “depression-like” behaviors. C57BL/6J wild-type mice (over 8 weeks old, purchased from Shanghai Lingchang Biotech Co., Ltd.) were restrained individually in a rodent restraint device for 5 hours. The mice were restricted from all body movements, but only minimal pain was introduced. During the ARS experiment, the mice were deprived of both food and water. After 5 hours of restraint, a separate group of mice was released and immediately injected intraperitoneally with the test compound. After 30 minutes of recovery, the behavioral changes of the mice were assessed through the Forced Swim Test (FST) or Tail Suspension Test (TST). […] All mice were forced to swim for 6 minutes, and their behavior was recorded using a video camera. The immobility time during the last 4 minutes of the test was recorded. […] In the TST, mice in the control group and those subjected to restraint stress were suspended by their tails with tape for 6 minutes, and their behavior was recorded using a video camera. The immobility time during the last 4 minutes was manually timed and assessed by an observer who was unaware of the treatment conditions.
# [8] = target: T2, dopamine D2 receptor (Homo sapiens, UniProt P14416); assay: radioligand competitive binding assay, affinity for the dopamine D2 receptor
# T2 construct: expressed in transfected cells; host or cells: HEK-293T (ATCC, CRL-11268)
# T2 sequence (P14416 whole entry, species assumed): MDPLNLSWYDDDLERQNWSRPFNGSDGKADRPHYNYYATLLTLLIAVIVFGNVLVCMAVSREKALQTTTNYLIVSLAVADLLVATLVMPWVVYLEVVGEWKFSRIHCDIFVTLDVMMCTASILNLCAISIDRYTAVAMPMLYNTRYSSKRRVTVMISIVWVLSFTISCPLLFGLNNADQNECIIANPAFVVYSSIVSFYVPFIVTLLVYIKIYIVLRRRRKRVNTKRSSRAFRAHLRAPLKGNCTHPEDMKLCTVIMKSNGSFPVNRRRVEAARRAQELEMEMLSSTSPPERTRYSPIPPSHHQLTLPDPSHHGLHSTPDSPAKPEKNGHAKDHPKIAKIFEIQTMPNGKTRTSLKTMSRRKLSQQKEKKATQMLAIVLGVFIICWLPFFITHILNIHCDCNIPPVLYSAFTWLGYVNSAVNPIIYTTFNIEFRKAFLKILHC
# Experimental: Method: The affinity of the compounds of the present disclosure for the dopamine D2 receptor was determined using a radioligand competitive binding assay as follows. In the first step, a cell membrane component containing dopamine D2 receptor was prepared. […] 48 hours post-transfection, the 10 cm culture dish was taken out from the cell incubator and the cultured cells had expressed the dopamine D2 receptor. The culture medium was aspirated using a vacuum pump, and 3 mL of lysis buffer was added to each culture dish. The cells were then placed in a cold room at 4° C. for 10 minutes. After the cells were detached, they were transferred to a 15 mL centrifuge tube and centrifuged at 1500 rpm for 5 minutes at 4° C., and the supernatant was discarded. The cell pellet was transferred to a tissue homogenizer, and 3 mL of lysis buffer was added. Sufficient grinding was applied to break the cells. The cell suspension was then equally aliquoted into several Eppendorf tubes and centrifuged at 12000 rpm for 5 minutes at 4° C., and the supernatant was discarded. The resulting precipitate was the cell membrane component containing the dopamine D2 receptor. […] The machine readout value reflected the amount of [3H]-Methylspiperone bound on the membrane, and after further data processing, the affinity Ki values of different compounds for the dopamine D2 receptor were obtained.
# [9] = system: C57BL/6J wild-type mice, acute restraint stress; assay: tail suspension test (TST) after acute restraint stress; assay type: in vivo; conditions: 5 h acute restraint stress, intraperitoneal injection, test after 30 minutes
# Experimental: as §2
# [10] = 10 mg/kg IP, male C57 mice
# Experimental: as §3, §4, §5, §6
# [11] = depressive episodes associated with bipolar I or II disorder; Calabrese et al. 2021; cited from earlier work
# [12] = Ki, affinity for the 5-HT2A receptor
# [13] = read-out: Ki, affinity for the 5-HT2A receptor
structure (smiles),measurement,setting,value
"COc1ccccc1CCN1CCC2C(C1)c1cccc3c1N2CCCN3C (single isomer, unassigned) [I-13]",β-arrestin2 signaling agonistic activity (% in parentheses),[1],(51.4%)
same,signaling pathway selectivity at the 5-HT2A receptor (β-arrestin2 versus G protein),[1],"selectively activate the recruitment of β-arrestin2 mediated by the 5-HT2A receptor, without activating the G protein signaling pathway"
"COc1ccccc1CCCN1CCC2C(C1)c1cccc3c1N2CCCN3C (single isomer, unassigned) [I-14]",Ki,[2]; [12],28 nM
"COc1ccccc1CCCN1CCC2C(C1)c1cccc3c1N2CCCN3C (single isomer, unassigned) [I-15]",Ki,[2]; [12],7 nM
same,β-arrestin2 signaling agonistic activity (% in parentheses),[1],(24.3%)
same,signaling pathway selectivity at the 5-HT2A receptor (β-arrestin2 versus G protein),[1],"selectively activate the recruitment of β-arrestin2 mediated by the 5-HT2A receptor, without activating the G protein signaling pathway"
"COc1ccccc1CCCN1CCC2C(C1)c1cccc3c1N2CCC3 (single isomer, unassigned) [I-18]",Ki,[2]; [12],57 nM
"COc1ccccc1CCCN1CCC2C(C1)c1cccc3c1N2CCC3 (single isomer, unassigned) [I-19]",β-arrestin2 signaling agonistic activity (% in parentheses),[1],(59.4%)
same,signaling pathway selectivity at the 5-HT2A receptor (β-arrestin2 versus G protein),[1],"selectively activate the recruitment of β-arrestin2 mediated by the 5-HT2A receptor, without activating the G protein signaling pathway"
"COc1ccccc1CCCN1CCC2C(C1)c1cccc3c1N2CCO3 (single isomer, unassigned) [I-23]",AUC0-inf,[3],540 ng·h/mL
same,hallucinogenic effects (head-twitch response),[4],did not induce hallucinogenic effects
same,β-arrestin2 signaling agonistic activity (% in parentheses),[1],(51.6%)
same,antidepressant effect in the mouse tail suspension test,"[5]; 10 mg/kg single injection, after 7 days",remained significant
same,antidepressant effect in the mouse tail suspension test,"[5]; 10 mg/kg single injection, after 14 days",remained significant
same,antidepressant effect in the mouse tail suspension test,[5]; one day after a single administration,significant antidepressant effect
"CN1CCN2c3c(cccc31)[C@@H]1CN(Cc3ccccc3O)CC[C@@H]12 [I-2, 2-(((6bR,10aS)-3-methyl-2,3,6b,9,10,10a-hexahydro-1H-pyrido[3′,4′:4,5]pyrrolo[1,2,3-de]quinoxalin-8 (7H)-yl)methyl)phenol]",Gq signaling agonistic activity (% in parentheses),[6],(65.3%)
same,Ki,[2]; [13],525 nM
same,β-arrestin2 signaling agonistic activity (% in parentheses),[1],(68.4%)
COc1ccccc1CCN1CC[C@H]2[C@@H](C1)c1cccc3c1N2CCN3C [I-3],Gq signaling agonistic activity (% in parentheses),[6],(20.2%)
same,antidepressant effect in the FST (immobility time),[7],significant antidepressant effect
same,Ki,[2]; [13],17 nM
same,"affinity for the dopamine receptor, in words",[8],weak affinity
same,antidepressant effect in the TST (immobility time),[9],significant antidepressant effect
same,hallucinogenic effects (head-twitch response),[4],did not induce hallucinogenic effects
same,β-arrestin2 signaling agonistic activity (% in parentheses),[1],(39.0%)
COc1cccc(CCN2CC[C@H]3[C@@H](C2)c2cccc4c2N3CCN4C)c1 [I-4],Gq signaling agonistic activity (% in parentheses),[6],(13.7%)
same,Ki,[2]; [13],88 nM
same,β-arrestin2 signaling agonistic activity (% in parentheses),[1],(44.2%)
COc1ccc(CCN2CC[C@H]3[C@@H](C2)c2cccc4c2N3CCN4C)cc1 [I-5],Ki,[2]; [13],126 nM
same,β-arrestin2 signaling agonistic activity (% in parentheses),[1],(3.2%)
COc1cccc(CCN2CC[C@H]3[C@@H](C2)c2cccc4c2N3CCN4C)c1OC [I-6],Ki,[2]; [13],5240 nM
"CN1CCN2c3c(cccc31)[C@@H]1CN(CCc3ccccc3O)CC[C@@H]12 [I-9, 2-(2-((6bR,10aS)-3-methyl-2,3,6b,9,10,10a-hexahydro-1H-pyrido[3′,4′:4,5]pyrrolo[1,2,3-de]quinoxalin-8 (7H)-yl)ethyl)phenol]",β-arrestin2 signaling agonistic activity (% in parentheses),[1],(14.4%)
COc1ccccc1CCCN1CC[C@H]2[C@@H](C1)c1cccc3c1N2CCN3C [I-10],antidepressant effect in the FST (immobility time),[7],significant antidepressant effect
same,Ki,[2]; [13],13 nM
same,AUC0-inf,[10]; brain,1346 h · ng · mL^−1 or ng · g^−1
same,AUC0-t,[10]; brain,1335 h · ng · mL^−1 or ng · g^−1
same,AUMC0-inf,[10]; brain,2054 h · h · ng · mL^−1 or ng · g^−
same,AUMC0-t,[10]; brain,1979 h · h · ng · mL^−1 or ng · g^−
same,Cmax,[10]; brain,566 ng/g
same,MRT,[10]; brain,91.8 min
same,T1/2,[10]; brain,48.1 min
same,tmax,[10]; brain,30 min
same,AUC0-inf,[10]; plasma,582 ng·h/mL
same,AUC0-t,[10]; plasma,576 ng·h/mL
same,Cmax,[10]; plasma,225 ng/mL
same,MRT,[10]; plasma,127 min
same,T1/2,[10]; plasma,63.6 min
same,tmax,[10]; plasma,4.98 min
same,"affinity for the dopamine receptor, in words",[8],weak affinity
same,antidepressant effect in the TST (immobility time),[9],significant antidepressant effect
same,hallucinogenic effects (head-twitch response),[4],did not induce hallucinogenic effects
same,β-arrestin2 signaling agonistic activity (% in parentheses),[1],(12.7%)
"CN1CCN2c3c(cccc31)[C@@H]1CN(CCCc3ccccc3O)CC[C@@H]12 [I-11, 2-(3-((6bR,10aS)-3-methyl-2,3,6b,9,10,10a-hexahydro-1H-pyrido[3′,4′:4,5]pyrrolo[1,2,3-de]quinoxalin-8 (7H)-yl)propyl)phenol]",Gq signaling agonistic activity (% in parentheses),[6],(9.7%)
same,β-arrestin2 signaling agonistic activity (% in parentheses),[1],(36.8%)
COc1ccccc1CCCN1CC[C@@H]2[C@H](C1)c1cccc3c1N2CCCS3 [I-27],β-arrestin2 signaling agonistic activity (% in parentheses),[1],(35.7%)
same,signaling pathway selectivity at the 5-HT2A receptor (β-arrestin2 versus G protein),[1],"selectively activate the recruitment of β-arrestin2 mediated by the 5-HT2A receptor, without activating the G protein signaling pathway"
CN1CCN2c3c(cccc31)[C@@H]1CN(CCCC(=O)c3ccc(F)cc3)CC[C@@H]12 [lumateperone],patient response rate,[11],51.1%
